Reference: patent US12070452B2, “Compounds targeting HSP110 protein for cancer treatment” (INSERM (Institut National de la Santé et de la Recherche …, priority 2018, dated 2024)

Assays:
[1] = test system: phosphorylated STAT3; assay: P-STAT3 level in SW480 cells (immunoblot quantification); type: cell-based, human; conditions: 10 μM, 48 h, normalized by actin
Experimental: Results for SW480 cells treated during 48 h with non-relevant antibody (called NT), compound 52, compound 33, compound 51 and comparative compound 61 at 10 μM, and sh110 cells correspond to the third fourth, fifth, sixth and last columns from the left to the right.
FIG. 3B: Quantification of P-STAT3 level (in percentage) normalized by actin. […] (Ordinate: Percentage of P-STAT3 level (scale 50)
Immunoprecipitation test were realized on human colorectal cancer cells (SW480 and HCT116 cell lines), using a control depleted in HSP110 called Sh110 and a not depleted cells in HSP110. STAT3 phosphorylation is then […] by compounds 33 and 52. Depletion of HSP110 in the negative control blocked the phosphorylation of STAT3 without affecting STAT3 overall levels (FIGS. 2 and 3).

[2] = test system: mouse colon cancer CT-26 cells; assay: Tumor growth, syngeneic CT-26 model in Balb/c mice; type: in vivo; conditions: CT-26, 5 mg/Kg intraperitoneally every three days
Experimental: FIG. 6A: Tumor volume monitoring of CT26 cells in Balb/c mice control-treated (Ctrl—line with circle) and treated with the compound 33 (5 mg/kg—line with square). Animals were treated by intraperitoneally injection every three days. (Abscissa: Days from 0 to 16 in day; Ordinate: Tumor volume in mm^3 from 0 to 200 (scale 500))
(§1) Two different colorectal mouse models were used: a syngeneic model for which mouse colon cancer CT-26 cells were injected into Balb/c mice and a NOD/SCID model in which mice were implanted with human colorectal cancer HCT116 cells (FIG. 4 A-B). When the tumor reached a size of −2 mm, mice were treated intraperitoneally with the compound 33 at 5 mg/Kg (BALB/c n=11, NOD SCID n=6) or corn oil 5% DMSO (BALB/c n=10, NOD SCID n=6), every three days until the end of the experiment. The compound 33 was dissolved in DMSO, then diluted 20 times in corn oil (Sigma Aldrich-C8267) and sterilized by filtration with PTFE membrane Millex 0.2 μm (Millipore-SLFG025LS). Tumors were analyzed before reaching 2000 mm3. Treatment by compound 33 induces a decrease in tumor growth of 40% and 60% in the Balb/c and NOD mice, respectively (FIGS. 6A and 6B).

[3] = test system: human colorectal cancer HCT116 cells; assay: Tumor growth, HCT116 xenograft in NOD/SCID mice; type: in vivo; conditions: HCT116, 5 mg/Kg intraperitoneally every three days
Experimental: FIG. 6B: Tumor volume monitoring of HCT116 cells grown in NOD/SCID animals treated intraperitoneally either with a non-relevant compound which is DMSO (named VEH line with circle) or treated with the compound 33 (5 mg/kg—line with square) (Abscissa: Days from 0 to 62 in day; Ordinate: Tumor volume in mm^3 from 0 to 2500 (scale 500)).
as §1

[4] = test system: CT26 tumors; assay: Immunofluorescence of P-STAT3 and cleaved caspase-3 in CT26 tumor slides (Balb/c); type: in vivo, mouse
From the text: FIG. 7A: Immunofluorescence assay of P-STAT3 (Phosphorylated STAT3) in CT26 cells in Balb/c mice tumors treated with VEH (non-relevant compound which is DMSO) (column on the left) or with compound 33 (column on the right). […] Statistical analysis has been performed by ANOVA (*=p=0.0019).
FIG. 7B: Immunofluorescence assay of cleaved caspase-3 (C3C) in CT26 cells in Balb/c mice tumors treated with VEH (column on the left) or with compound 33 (column on the right). […] (Ordinate: Caspase-3 cleaved relative fluorescence in percentage). Statistical analysis has been performed by ANOVA (***=p=0.0003)
as §1, with “Treatment by compound 33 induces a decrease in tumor growth of 40% and 60% in the Balb/c and NOD mice, respectively (FIGS. 6A and 6B).” left out

[5] = test system: DLBCL cell lines (HBL1, TMD8, U2932); assay: Viability of B-cell lymphoma cell lines, combination with Ibrutinib; type: cell-based, human; conditions: compound 33 at suboptimal 10 μM, Ibrutinib 0.01-100 nM
Experimental: FIG. 12: Viability of various B-cell lymphoma cell lines treated with a suboptimal concentration of compound 33 (i) alone or (ii) in combination with increasing concentrations of Ibrutinib.
Groups of bars, from the left to the right of FIG. 12: (i) HBL1 human diffuse large B-cell lymphoma cell line not treated with compound 33 and treated with and increasing concentrations of Ibrutinib, (ii) HBL1 human diffuse large B-cell lymphoma cell line treated with 10 μM of compound 33 and increasing concentrations of Ibrutinib, (iii) TMD8 human B cell lymphoma cell line not treated with compound 33 and treated with and increasing concentrations of Ibrutinib, (iv) TMD8 human B cell lymphoma cell line treated with 10 μM of compound 33 and increasing concentrations of Ibrutinib, (v) U2932 human diffuse large B-cell lymphoma cell line not treated with compound 33 and treated with and increasing concentrations of Ibrutinib, and (vi). U2932 human diffuse large B-cell lymphoma cell line treated with 10 μM of compound 33 and increasing concentrations of Ibrutinib.
In each group of bars, form the left to the right: (i) Control (0 nM), without treatment with Ibrutinib, (ii) Ibrutinib at 0.01 nM, (iii) Ibrutinib at 0.1 nM, (iv) Ibrutinib at 1 nM, (v) Ibrutinib at 10 nM, (vi) Ibrutinib at 100 nM.

[6] = Body and spleen weights of mice during treatment; type: in vivo; conditions: immunodeficient mice, 10 or 20 mg/kg intraperitoneally
Experimental: FIG. 11C: Body weight monitoring of Immunodeficient mice treated intraperitoneally with the compound 52 (=inhibitor 52) at 10 or 20 mg/kg or with vehicle at the same frequency. (Abscissa: Days from 0 to 20 in day; Ordinate: Body weight in g from 24 to 34 g (scale 2)).
FIG. 11D: Spleen weights monitoring of Immunodeficient mice treated intraperitoneally with the compound 52 (=inhibitor 52) at 10 or 20 mg/kg or with vehicle at the same frequency. (Abscissa: Treatments vehicle, 10 mg/kg or 20 mg/kg of compound 52; Ordinate: Spleen weight in mg from 20 to 100 mg (scale 20)).

SMILES	P-STAT3 level [1]	decrease in tumor growth [2]	decrease in tumor growth [3]	P-STAT3 in tumor slides (relative fluorescence) ([4]; CT26 tumors in Balb/c mice, control 100%)	tumor cell apoptosis (cleaved caspase-3 staining) ([4]; CT26 tumors, Balb/c model)	effect in combination with Ibrutinib on viability [5]	toxicity (body and spleen weights) [6]
COc1ccc(-c2ncc(-c3ncc(-c4cc(OC)c(OC)c(OC)c4)cc3/C=C/c3ccccc3)cc2C)cc1OC [compound 33, (E)-6′-(3,4-Dimethoxyphenyl)-5′-methyl-3-styryl-5-(3,4,5-trimethoxyphenyl)-2,3′-bipyridine]	~60%	40%	60%	50%	increase in tumor cell apoptosis	synergistic effect	
COc1cc(-c2cnc(-c3cnc(-c4cc(OC)c(OC)c(OC)c4)c(C)c3)c(/C=C/c3ccccc3)c2)cc(OC)c1OC [compound 52, (E)-5′-Methyl-3-styryl-5,6′-bis(3,4,5-trimethoxyphenyl)-2,3′-bipyridine]	about 20%						no toxicity
